From patent publication US20260355192A1, “PROPHYLACTIC OR THERAPEUTIC AGENT FOR PERIOSTIN-MEDIATED DISEASE AND PRURITUS ASSOCIATED THEREWITH” (SAGA UNIVERSITY, priority 2022, published 2026)

Key:
[1] = test system: scratching behaviors in FADS mice; experiment: Scratching behaviors in FADS mice upon single systemic administration of αvβ3 integrin inhibitors; type: in vivo, mouse (FADS, Nestin-cre/Ikk2ff); details: for % Change from baseline in the number of scratchings (mean ± standard error): single, 60 minutes after administration vs before administration
Source text: Nestin-cre transgenic mice were crossed with IKK2^ff mice to prepare Nestin-cre/Ikk2^ff mice specifically lacking IKK2 in their facial skin fibroblasts (Nunomura S, et al. J Invest Dermatol. 139:1274-1283, 2019). These mice inevitably develop atopic dermatitis-like rash limited to the face and intense itchy symptoms, and were therefore designated as Facial Atopic Dermatitis with Scratching (FADS) mice. […] For evaluation of the prophylactic or therapeutic agent of the present invention, FADS mice at 3 to 4 weeks of age or older were used because of showing spontaneous scratching behaviors. It should be noted that in this Example section, the above compound of formula (I) (more particularly “CP4715”) was used as the prophylactic or therapeutic agent of the present invention.
FADS mice were acclimated for 20 minutes to the environment of a recording cage, and then recorded with a video camera. The recorded videos were replayed, and scratching behaviors were counted assuming that hind paw scratching to the face and the subsequent movement of toe licking or paw lowering to the ground were regarded as one cycle of scratching behavior.
(§1) Prior to the administration of the above αvβ3 integrin inhibitors, FADS mice were recorded for 60 minutes with a video camera and then allowed to rest for 15 minutes. The compounds except for GLPG-0187 were each dissolved at 89.5 mM in a diluent (physiological saline containing 50% DMSO and 89.5 mM HCL), from which an amount corresponding to 53.7 μmol/kg per mouse was then taken and diluted with 0.3 mL of PBS, and then administered intraperitoneally. […] Mice administered with 0.3 mL of PBS containing an equal amount of the diluent as calculated based on the body weight were used as a control group.
The mice were recorded for 60 minutes with a video camera immediately after administration of the above αvβ3 integrin inhibitors. The number of scratchings before administration was used as a baseline, and % change from the baseline after administration was calculated for each compound. For statistical analysis, paired t-test was used. A P-value of less than 0.05 was considered to be statistically significant. The effect of an inhibitor whose mean change from the baseline was −65% or more at a P-value of less than 0.01 was expressed as “++”; the effect of an inhibitor whose mean change from the baseline was −60% or less at a P-value of less than 0.05 was expressed as “+”; and the effect of an inhibitor whose mean change from the baseline was −60% or less at a P-value of 0.05 or higher was expressed as “−.”

[2] = molecular target: T1, integrin αvβ3 (Homo sapiens, UniProt P05106+P06756); experiment: Inhibition of periostin-dependent adhesion of SW480 cells expressing integrin αvβ3; type: cell-based; details: immobilized recombinant human periostin, FIG. 6; for IC50: SW480 cells expressing human integrin β3, compounds at 0.001-1 μM, read-out: 50% inhibition concentration (IC50 value) for cell adhesion inhibitory activity; for cell adhesion inhibitory effect (in words): SW480 cells expressing integrin αvβ3
T1 construct: SW480 cells, a human colon cancer cell line not expressing integrin β3; expressed in transfected cells; host or cells: SW480 cells (human colon cancer) stably expressing human integrin β3
Procedure: For use in cell adhesion experiments, SW480 cells, a human colon cancer cell line not expressing integrin β3, were genetically engineered to stably express human integrin β3 (Nanri Y, et al. Am J Respir Cell Mol Biol. 62:204-216, 2020). The compounds shown in Table 1 were examined for their inhibitory activity against adhesion between integrin αvβ3 and periostin according to the following procedures. First, a 96-well plate was treated with 10 μg/mL recombinant human periostin (Bio-Techne) at 4 °C for 16 hours to immobilize periostin. The SW480 cells expressing integrin αvβ3 (5×10^4 cells) were reacted at room temperature for 15 minutes with the above compounds at 0.001, 0.01, 0.1 and 1 μM in serum-free DMEM (Dulbecco's Modified Eagle Medium) containing 0.5% bovine serum albumin and 0.25 mM MnCl2. A group receiving no compound was used as a control. The reacted cell suspensions were added to separate wells of the above human periostin-immobilized plate, and the plate was centrifuged at 10×g for 5 minutes and then cultured at 37 °C for 60 minutes. Then, after the adhered cells were washed to remove unbound cells, the adhered cells were fixed with 1% formaldehyde and stained with 0.5% crystal violet. The fixed and stained cells were solubilized with 0.2% Triton X-100 and measured for absorbance at 595 nm. The absorbance of the control (i.e., the group receiving no compound) was set to 0% inhibition. […] Cell adhesion in this test system is periostin-dependent, and a compound inhibiting this cell adhesion can be referred to as a periostin receptor antagonist.

[3] = test system: integrin αvβ3; details: cited from earlier work
[4] = test system: integrin αvβ3; details: Nanri Y, et al. 2020; cited from earlier work
[5] = Solubility in the diluent; type: physicochemical; details: diluent: physiological saline containing 50% DMSO and 89.5 mM HCl
Procedure: as §1

[6] = test system: scratching behaviors; details: intracutaneous or subcutaneous administration; Non-patent Document 2; cited from earlier work

T1 sequence (P06756 31-889 limits assumed): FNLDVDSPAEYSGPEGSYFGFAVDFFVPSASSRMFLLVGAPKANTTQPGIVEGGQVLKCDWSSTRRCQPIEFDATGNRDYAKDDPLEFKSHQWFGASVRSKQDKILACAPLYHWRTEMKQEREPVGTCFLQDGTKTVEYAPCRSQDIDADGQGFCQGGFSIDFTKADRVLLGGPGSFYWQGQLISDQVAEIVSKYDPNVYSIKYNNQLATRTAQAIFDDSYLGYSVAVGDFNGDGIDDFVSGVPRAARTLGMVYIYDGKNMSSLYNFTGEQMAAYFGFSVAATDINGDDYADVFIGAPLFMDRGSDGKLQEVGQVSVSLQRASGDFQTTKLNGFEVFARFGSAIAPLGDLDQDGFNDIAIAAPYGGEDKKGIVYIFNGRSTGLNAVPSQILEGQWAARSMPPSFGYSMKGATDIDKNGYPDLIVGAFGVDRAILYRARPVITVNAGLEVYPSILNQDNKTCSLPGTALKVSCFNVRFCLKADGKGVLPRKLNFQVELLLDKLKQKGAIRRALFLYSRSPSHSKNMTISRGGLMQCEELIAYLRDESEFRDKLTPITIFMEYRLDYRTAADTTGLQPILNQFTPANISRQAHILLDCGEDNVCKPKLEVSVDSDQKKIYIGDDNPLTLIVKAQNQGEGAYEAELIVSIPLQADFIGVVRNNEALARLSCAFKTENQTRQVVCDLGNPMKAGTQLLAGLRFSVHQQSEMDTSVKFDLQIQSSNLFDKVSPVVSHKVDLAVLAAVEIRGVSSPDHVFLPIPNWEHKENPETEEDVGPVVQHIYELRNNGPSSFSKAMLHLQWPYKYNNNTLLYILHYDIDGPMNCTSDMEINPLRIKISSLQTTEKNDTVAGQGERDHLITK
T1 sequence (P06756 891-1048 partner limits assumed): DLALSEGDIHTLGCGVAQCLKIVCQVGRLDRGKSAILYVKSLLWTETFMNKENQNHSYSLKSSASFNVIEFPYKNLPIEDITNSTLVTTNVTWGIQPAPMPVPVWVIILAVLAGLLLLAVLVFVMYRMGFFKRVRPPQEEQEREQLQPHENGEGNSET
T1 sequence (P05106 27-788): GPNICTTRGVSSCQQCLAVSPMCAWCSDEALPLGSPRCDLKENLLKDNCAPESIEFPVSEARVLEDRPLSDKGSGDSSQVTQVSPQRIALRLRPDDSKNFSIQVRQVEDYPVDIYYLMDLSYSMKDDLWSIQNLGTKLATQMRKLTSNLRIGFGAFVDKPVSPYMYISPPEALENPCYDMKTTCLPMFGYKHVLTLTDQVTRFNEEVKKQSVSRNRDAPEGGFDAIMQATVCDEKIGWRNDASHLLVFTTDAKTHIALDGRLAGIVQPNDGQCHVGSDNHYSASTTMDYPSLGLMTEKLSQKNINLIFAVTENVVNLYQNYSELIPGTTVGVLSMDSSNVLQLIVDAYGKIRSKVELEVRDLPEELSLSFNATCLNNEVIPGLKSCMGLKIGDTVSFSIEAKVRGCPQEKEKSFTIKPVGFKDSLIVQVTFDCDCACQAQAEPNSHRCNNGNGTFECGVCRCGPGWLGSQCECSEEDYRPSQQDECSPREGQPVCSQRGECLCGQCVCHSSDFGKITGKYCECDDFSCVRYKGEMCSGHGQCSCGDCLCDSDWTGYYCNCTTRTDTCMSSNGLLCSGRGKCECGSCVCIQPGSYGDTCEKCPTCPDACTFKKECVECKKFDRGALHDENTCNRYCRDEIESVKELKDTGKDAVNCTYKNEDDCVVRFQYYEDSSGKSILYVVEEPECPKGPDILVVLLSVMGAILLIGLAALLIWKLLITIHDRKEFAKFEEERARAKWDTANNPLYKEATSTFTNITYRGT

Molecule: O=C(NC[C@H](NS(=O)(=O)c1ccccc1)C(=O)O)c1ccc(N2CCC[C@H](NC3=NCCCN3)C2)cc1 [CP derivative 6, (S)-2-(Phenylsulfonamido)-3-(4-((S)-3-((1,4,5,6-tetrahydropyrimidin-2-yl)amino)piperidin-1-yl)benzamido)propanoic acid]
- % Change from baseline in the number of scratchings (mean ± standard error) ([1]; 53.7 μmol/kg i.p.): −77.8 ± 7.9%
- grade of effect on % change from the baseline in the number of scratchings ([1]; single i.p., 53.7 μmol/kg (GLPG-0187 5.37 μmol/kg), paired t-test): ++ (mean change from the baseline was −65% or more at a P-value of less than 0.01)
- IC50 [2]: ≤ 1 nM
- cell adhesion inhibitory effect (in words) [2]: high
- inhibition of binding between integrin αvβ3 and vitronectin [3]: inhibit binding
- inhibition of binding between integrin αvβ3 and periostin [4]: inhibit binding

Molecule: COc1ccc(S(=O)(=O)N[C@@H](CNc2nc(C)nc(N3CCC(c4ccc5c(n4)NCCC5)CC3)c2C)C(=O)O)cc1 [GLPG-0187, (S)-3-((2,5-dimethyl-6-(4-(5,6,7,8-tetrahydro-1,8-naphthyridin-2-yl)piperidin-1-yl)pyrimidin-4-yl)amino)-2-((4-methoxyphenyl)sulfonamido)propanoic acid]
- % Change from baseline in the number of scratchings (mean ± standard error) ([1]; 5.37 μmol/kg i.p.): −38.9 ± 31.2%
- IC50 [2]: ≤ 1 nM
- cell adhesion inhibitory effect (in words) [2]: high
- solubility [5]: low solubility

B1: Periostin: extracellular matrix protein that binds to cell surface receptors belonging to the integrin family (protein, UniProt Q15063 22-836, looked up)
Periostin: NNHYDKILAHSRIRGRDQGPNVCALQQILGTKKKYFSTCKNWYKKSICGQKTTVLYECCPGYMRMEGMKGCPAVLPIDHVYGTLGIVGATTTQRYSDASKLREEIEGKGSFTYFAPSNEAWDNLDSDIRRGLESNVNVELLNALHSHMINKRMLTKDLKNGMIIPSMYNNLGLFINHYPNGVVTVNCARIIHGNQIATNGVVHVIDRVLTQIGTSIQDFIEAEDDLSSFRAAAITSDILEALGRDGHFTLFAPTNEAFEKLPRGVLERIMGDKVASEALMKYHILNTLQCSESIMGGAVFETLEGNTIEIGCDGDSITVNGIKMVNKKDIVTNNGVIHLIDQVLIPDSAKQVIELAGKQQTTFTDLVAQLGLASALRPDGEYTLLAPVNNAFSDDTLSMDQRLLKLILQNHILKVKVGLNELYNGQILETIGGKQLRVFVYRTAVCIENSCMEKGSKQGRNGAIHIFREIIKPAEKSLHEKLKQDKRFSTFLSLLEAADLKELLTQPGDWTLFVPTNDAFKGMTSEEKEILIRDKNALQNIILYHLTPGVFIGKGFEPGVTNILKTTQGSKIFLKEVNDTLLVNELKSKESDIMTTNGVIHVVDKLLYPADTPVGNDQLLEILNKLIKYIQIKFVRGSTFKEIPVTVYTTKIITKVVEPKIKVIEGSLQPIIKTEGPTLTKVKIEGEPEFRLIKEGETITEVIHGEPIIKKYTKIIDGVPVEITEKETREERIITGPEIKYTRISTGGGETEETLKKLLQEEVTKVTKFIEGGDGHLFEDEEIKRLLQGDTPVRKLQANKKVQGSRRRLREGRSQ
- induction of scratching behaviors [6]: induce scratching behaviors
